{"source": "patent US20260115331A1", "about": "“PET IMAGING OF BACTERIAL INFECTION WITH A PET PROBE” (Mayo Foundation for Medical Education and Research, priority 2022, published 2026)", "key": {"[1]": {"system": "Pseudomonas aeruginosa (P. aeruginosa)", "test": "Ex vivo biodistribution in osteomyelitis foreign body rat model with P. aeruginosa infection vs inflammation model", "parameters": "species or system rats", "conditions": "120 minutes post-injection, comparable SUVs except bladder and feces (FIG. 35)", "description": "(§1) The acquired PET images were visualized and analyzed for quantifying standardized uptake value (SUV) using image analysis software—MIM 7 software and PMOD. Following final imaging at 120 minutes post-injection, the animal was euthanized, and major organs and infected and inflamed tibia were extracted for gamma counting for ex-vivo biodistribution analysis (see FIG. 22). At the end of last imaging session, rats were euthanized by cardiectomy, and the operated tibia with K-wire or contralateral tibia were aseptically removed. Following removal, tibias were weighed, and Ga-68 radioactivity was counted in 2480 Wizard2 automatic gamma counter for ex-vivo biodistribution assessment. The tibias were then frozen to −80° C. The frozen tibia from each animal was crushed aseptically using a bone pulverizer chilled at −80° C. The crushed tibia without K wire was weighed and vortexed in 1 mL sterile saline. The K wire was also vortexed in 1.0 mL sterile saline separately. The vortexed tibia and K-wire saline suspension were sonicated for 5 minutes. After sonication, 1:10 serial dilutions were prepared in saline and 0.1 mL of each dilution was plated in Trypticase Soy Agar plates with 5% Sheep Blood (TSA II). After 24 hours of incubation at 37° C., the bacterial cultures in tibia suspension and K-wire suspension were quantified. […]"}, "[2]": {"test": "Biodistribution in normal mice at 120 min post injection", "type": "in vivo", "conditions": "N = 5, 120 min post injection", "description": "The feasibility of the developed PET probe [^68Ga]Ga-H3P2O8 in a mouse model of thigh infection as well as uptake in E. coli has been evaluated. […] The biodistribution of developed PET probe in normal and in thigh infected mice has been assessed (see FIG. 11). […] Micro-PET imaging of normal and thigh-infected mice has also been performed. The site of bacterial infection was evident on micro-PET images (see FIG. 13) with arrows in contrast to the non-infected group of mice. The bacterial site of infection on micro-PET images was confirmed by bacterial culture performed on the biopsied sample. Micro-PET imaging was performed at different time intervals to optimize imaging time."}, "[3]": {"system": "Methicillin-resistant Staphylococcus aureus (MRSA)", "test": "Ex vivo biodistribution SUV ratios (operated tibia/contralateral tibia), MRSA infection and inflammation", "type": "in vivo, rats", "conditions": "120 minutes post-injection, p<0.05 (FIG. 31)", "description": "The acquired PET images were visualized and analyzed for quantifying standardized uptake value (SUV) using image analysis software—MIM 7 software and PMOD. Following final imaging at 120 minutes post-injection, the animal was euthanized, and major organs and infected and inflamed tibia were extracted for gamma counting for ex-vivo biodistribution analysis (see FIG. 22). At the end of last imaging session, rats were euthanized by cardiectomy, and the operated tibia with K-wire or contralateral tibia were aseptically removed. Following removal, tibias were weighed, and Ga-68 radioactivity was counted in 2480 Wizard2 automatic gamma counter for ex-vivo biodistribution assessment. The tibias were then frozen to −80° C. […] After 24 hours of incubation at 37° C., the bacterial cultures in tibia suspension and K-wire suspension were quantified. […]\nTurning now to FIG. 28, the localization of [^68Ga]Ga-H3P2O8 at an infection was investigated in comparison to [^68Ga]Ga-Citrate and [^18F]FDG. The uptake of [^68Ga]Ga-H3P2O8, [^68Ga]Ga-citrate and [^18F]FDG at 120 minutes post-injection in areas of Methicillin-resistant Staphylococcus aureus (MRSA) infection was determined by ex vivo biodistribution. Additionally, the uptake of [^68Ga]Ga-H3P2O8, [^68Ga]Ga-citrate and [^18F]FDG at 120 minutes post-injection in an inflammation was determined similarly. […]"}, "[4]": {"system": "Klebsiella pneumoniae (K. pneumoniae)", "test": "Ex vivo biodistribution in osteomyelitis foreign body rat model with K. pneumoniae infection vs inflammation model", "parameters": "species or system rats", "conditions": "120 minutes post-injection, comparable SUVs except bladder and feces (FIG. 34)", "description": "as §1"}, "[5]": {"test": "PET image analysis (SUV) of inflamed tibia in foreign body inflammation rat model", "type": "in vivo, rats", "conditions": "each time point up to 120 minutes (FIG. 27)", "description": "The PET probe [^68Ga]Ga-H3P2O8 was evaluated in methicillin-resistant S. aureus (MRSA) foreign-body osteomyelitis in the left tibia with a stainless steel Kirschner wire (K-wire) implant in male Wister rats, following a previously established protocol [Ref. 17]. Briefly, a 1 cm incision was made on the medial tibia and the bone exposed. A 1.5 mm hole was drilled, 0.01 mL of arachidonic acid (a sclerosing agent) and 0.05 mL of a suspension containing MRSA DRL-6169 at 10^8 cfu/mL was injected into the bone. A 5 mm threaded stainless-steel K-wire was inserted. The hole was closed with dental gypsum and the site closed. After implantation, the muscle and fascia were closed with 3-0 vicryl using simple interrupted sutures. The skin was closed with sterile wound clips and VetBond. The wound was sprayed with Aluspray and Chew Guard. After 7 days of implantation of wire, the animal was put on iron-deficient diet for 7 days and on the day of imaging, the animals were fasted for 4 hours prior to the injection of the PET probe. [^68Ga]Ga-H3P2O8 (32.81±6.28 MBq, n=18) were injected into the rat model via tail vein injection. The rat model was either a normal rat model or an osteomyelitis foreign body rat model or an inflamed foreign body rat model. PET/CT images were acquired at 15 minutes, 30 minutes, 60 minutes, and 120 minutes post-injection using Siemens Inveon MicroPET/CT Scanner (see FIGS. 17, 18, and Table 2).\nTo assess the preferential uptake of novel [^68Ga]Ga-H3P2O8 PET probe in infection as compared to inflammation, the same surgery and imaging was performed but omitted the MRSA. […] The probe [^68Ga]Ga-H3P2O8 was also successfully used to detect thigh infection caused by E coli in a mouse model.\nTo further investigate the selectivity of [^68Ga]Ga-H3P2O8 for imaging infection over inflammation, this novel probe was compared to other PET imaging probes, [^68Ga]Ga-Citrate and [^18F]FDG in an inflammation model. In a side-by-side study, all three probes were used to image inflammation (i.e., an inflamed tibia) in an osteomyelitis foreign body rat model."}, "[6]": {"system": "Methicillin-resistant Staphylococcus aureus (MRSA)", "type": "in vivo, rats", "conditions": "PET image analysis, p<0.05 (FIG. 30)"}}}
{"smiles": "O=P(O)(O)[O][Ga]1[O]P(=O)(O)[O]1", "note": "[[^68Ga]Ga-H3P2O8, [^68Ga]Ga-hydrogen bisphosphate]", "values": [{"measurement": "distribution in organs/excrement of infected model compared with inflammation model", "setting": "[1]", "value": "similar"}, {"measurement": "SUV ± STD, Adipose", "setting": "[2]; Adipose", "value": "0.76 ± 0.38", "unit": "SUV"}, {"measurement": "SUV ± STD, Bladder", "setting": "[2]; Bladder", "value": "2.41 ± 2.84", "unit": "SUV"}, {"measurement": "SUV ± STD, Blood", "setting": "[2]; Blood", "value": "2.76 ± 0.97", "unit": "SUV"}, {"measurement": "SUV ± STD, Bone", "setting": "[2]; Bone", "value": "1.88 ± 1.26", "unit": "SUV"}, {"measurement": "SUV ± STD, Brain", "setting": "[2]; Brain", "value": "0.07 ± 0.02", "unit": "SUV"}, {"measurement": "SUV ± STD, Cecum", "setting": "[2]; Cecum", "value": "1.33 ± 0.60", "unit": "SUV"}, {"measurement": "SUV ± STD, Eye", "setting": "[2]; Eye", "value": "2.30 ± 1.41", "unit": "SUV"}, {"measurement": "SUV ± STD, Feces", "setting": "[2]; Feces", "value": "0.82 ± 0.28", "unit": "SUV"}, {"measurement": "SUV ± STD, Gut", "setting": "[2]; Gut", "value": "1.15 ± 0.29", "unit": "SUV"}, {"measurement": "SUV ± STD, Heart", "setting": "[2]; Heart", "value": "0.87 ± 0.30", "unit": "SUV"}, {"measurement": "SUV ± STD, Kidney-1", "setting": "[2]; Kidney-1", "value": "1.11 ± 0.29", "unit": "SUV"}, {"measurement": "SUV ± STD, Kidney-2", "setting": "[2]; Kidney-2", "value": "0.71 ± 0.20", "unit": "SUV"}, {"measurement": "SUV ± STD, Liver", "setting": "[2]; Liver", "value": "1.05 ± 0.42", "unit": "SUV"}, {"measurement": "SUV ± STD, Lung-1", "setting": "[2]; Lung-1", "value": "2.17 ± 0.85", "unit": "SUV"}, {"measurement": "SUV ± STD, Lung-2", "setting": "[2]; Lung-2", "value": "3.22 ± 2.29", "unit": "SUV"}, {"measurement": "SUV ± STD, Normal Thigh", "setting": "[2]; Normal Thigh", "value": "0.52 ± 0.23", "unit": "SUV"}, {"measurement": "SUV ± STD, Skin", "setting": "[2]; Skin", "value": "0.71 ± 0.38", "unit": "SUV"}, {"measurement": "SUV ± STD, Spleen", "setting": "[2]; Spleen", "value": "0.70 ± 0.16", "unit": "SUV"}, {"measurement": "SUV ± STD, Stomach", "setting": "[2]; Stomach", "value": "0.49 ± 0.24", "unit": "SUV"}, {"measurement": "uptake as SUV ratios (Operated tibia/contralateral tibia), MRSA vs P. aeruginosa", "setting": "[3]", "value": "significant difference in uptake"}, {"measurement": "distribution in organs/excrement of infected model compared with inflammation model", "setting": "[4]", "value": "similar"}, {"measurement": "difference in mean SUV between the probes in inflamed tibia", "setting": "[5]", "value": "no significant difference"}, {"measurement": "mean SUV for MRSA-infected animal compared with animals infected with K. pneumoniae or P. aeruginosa", "setting": "[6]", "value": "significantly higher"}]}
